In patent US12162897B2, “1,4-sulfur-bridged polycyclic compounds containing dihydrobenzofuran structure, its preparation method and application thereof” (Chengdu University, priority 2021, dated 2024):
pIC50: −log10 of the molar value.

Legend:
[1] = test system: human lung cancer cells A549; experiment: Cell viability assay, human lung cancer cells A549; assay type: cell-based; conditions: 5000 cells per well, 96-well plate, 48 hours with compound, mean of repeats
Experimental: (§1) Specific experimental operations: 5000 human leukemia cells K562 and human lung cancer cells A549 are seeded into 96-well cell culture plates respectively to grow for 24 hours. Then, a predetermined concentration of the above synthesized compounds are added respectively, wherein the antitumor drug cisplatin is used as a control for 48 hours. The mean 50% inhibitory concentration (IC50) of all compounds is then determined. Each concentration is repeated at least three times, and all experiments are repeated three times, and the average results obtained are shown in Table 1.

[2] = test system: human leukemia cells K562; experiment: Cell viability assay, human leukemia cells K562; assay type: cell-based; conditions: 5000 cells per well, 96-well plate, 48 hours with compound, mean of repeats
Experimental: as §1

Row | Structure (SMILES) | pIC50 [1] | pIC50 [2] | pIC50 ([1]; Homo sapiens, A549, 48 h) | pIC50 ([2]; Homo sapiens, K562, 48 h)
1 | N.N.[Cl][Pt][Cl] [Cisplatin, cisplatin, reference compound] | 4.62 | 4.69 |  | 
2 | C[C@@]12S[C@@](c3ccccc3)(NC1=O)[C@]1([N+](=O)[O-])Oc3ccc(F)cc3[C@H]21 [I-ba] |  |  | 4.49 | 4.89
3 | C[C@@]12S[C@@](c3ccc(Cl)cc3)(NC1=O)[C@]1([N+](=O)[O-])Oc3ccccc3[C@H]21 [I-ad] |  |  | 4.40 | 4.30
4 | C[C@@]12S[C@@](c3cccc(Br)c3F)(NC1=O)[C@]1([N+](=O)[O-])Oc3ccccc3[C@H]21 [I-ag] | 4.35 | 4.52 |  | 
5 | C[C@@]12S[C@@](c3ccccc3)(NC1=O)[C@]1([N+](=O)[O-])Oc3ccc(Cl)cc3[C@H]21 [I-ea] |  |  | 4.34 | 4.67
6 | COc1cc(Br)cc2c1O[C@]1([N+](=O)[O-])[C@H]2[C@]2(C)S[C@@]1(c1ccccc1)NC2=O [I-la] |  |  | 4.81 | 5.51
7 | C[C@@]12S[C@@](c3cccc(Br)c3F)(NC1=O)[C@]1([N+](=O)[O-])Oc3ccccc3[C@H]21 [I-af] |  |  | 4.40 | 4.33
8 | C[C@@]12S[C@@](c3ccccc3)(NC1=O)[C@]1([N+](=O)[O-])Oc3ccc([N+](=O)[O-])cc3[C@H]21 [I-ha] |  |  | 4.17 | 4.65
9 | C[C@@]12S[C@@](c3ccc4ccccc4n3)(NC1=O)[C@]1([N+](=O)[O-])Oc3ccccc3[C@H]21 [I-ah] |  |  | 4.69 | 4.23
10 | C[C@@]12S[C@@](c3ccccc3)(NC1=O)[C@]1([N+](=O)[O-])Oc3ccc(Br)cc3[C@H]21 [I-fa] |  |  | 4.17 | 4.51
11 | C[C@@]12S[C@@](c3ccc(F)cc3)(NC1=O)[C@]1([N+](=O)[O-])Oc3ccccc3[C@H]21 [I-ac] |  |  | 4.23 | 4.13
12 | C[C@@]12S[C@@](c3ccccc3F)(NC1=O)[C@]1([N+](=O)[O-])Oc3ccccc3[C@H]21 [I-ab] |  |  | 4.24 | 4.28
13 | COc1ccc2c(c1)O[C@]1([N+](=O)[O-])[C@H]2[C@]2(C)S[C@@]1(c1ccccc1)NC2=O [I-ja] |  |  | 5.32 | 5.59
14 | CC(C)(C)c1ccc2c(c1)[C@@H]1[C@]3(C)S[C@@](c4ccccc4)(NC3=O)[C@]1([N+](=O)[O-])O2 [I-ka] |  |  | 4.48 | 4.53
15 | C[C@@]12S[C@@](c3ccccc3)(NC1=O)[C@]1([N+](=O)[O-])Oc3cc(Br)ccc3[C@H]21 [I-ga] |  |  | 4.51 | 5.15
16 | Cc1ccc2c(c1)O[C@]1([N+](=O)[O-])[C@H]2[C@]2(C)S[C@@]1(c1ccccc1)NC2=O [I-ia] |  |  | 4.48 | 4.84
17 | C[C@@]12S[C@@](c3ccccc3)(NC1=O)[C@]1([N+](=O)[O-])Oc3ccccc3[C@H]21 [I-aa] |  |  | 4.55 | 4.91
18 | C[C@@]12S[C@@](c3ccccn3)(NC1=O)[C@]1([N+](=O)[O-])Oc3ccccc3[C@H]21 [I-ai] |  |  | 4.62 | 4.49
19 | C[C@@]12S[C@@](c3ccc(Br)cc3)(NC1=O)[C@]1([N+](=O)[O-])Oc3ccccc3[C@H]21 [I-ae] |  |  | 4.34 | 4.26
20 | C[C@@]12S[C@@](c3ccccc3)(NC1=O)[C@]1([N+](=O)[O-])Oc3c(F)cccc3[C@H]21 [I-ca] |  |  | 4.24 | 4.72
21 | C[C@@]12S[C@@](c3ccccc3)(NC1=O)[C@]1([N+](=O)[O-])Oc3cccc(Cl)c3[C@H]21 [I-da] |  |  | 4.46 | 4.99
